Results as given in patent EP0799174B1, “BIOCIDAL ALCOHOLS, THEIR PRODUCTION AND THEIR USE” (SCHÜLKE & MAYR GMBH, priority 1994, dated 1996).

How the values were obtained:
Format in all cases: cell-based
[1] = tested on: Penicillium funiculosum ATCC 36839; assay: MIC values, water-soluble (inhibition titre, dilution series in CSL)
[2] = tested on: Aspergillus niger ATCC 6275; assay: as above
[3] = tested on: Mycobacterium terrae ATCC 15755; assay: Germ carrier experiment with standard cotton; set-up: key: E: individual colonies; M: several colonies; +: weak growth; ++: moderate growth; +++: heavy growth; ++++: very heavy growth; ∞: lawn growth; details: Rewopal MPG 40 25.0%, aromatic alcohol 2.0 %, dem. water to 100
Protocol: • Rewopal MPG 40 25.0% • aromatic alcohol 2.0 % • dem. water to 100
The bacteria are elutriated with 5 ml CSL from a 24 h-old (37°C) culture onto CSA plates measuring approx. 9 cm in diameter, the suspension being diluted with CSL if necessary. The number of CFU/ml is to be determined using surface culture. It should be > 10^9/ml.
The sterilized and dried germ carriers are introduced into the bacterial suspension and left in it for 15 minutes, during which they are turned over twice.
A number (4) of contaminated, thoroughly impregnated germ carriers, corresponding to the proposed removal times - 15, 30, 60 and 120 minutes - is placed in a small dish and 10 ml of the disinfectant solution to be tested in WSH are poured over them. Air bubbles are to be removed by repeated turning of the germ carriers.
After the corresponding action times, the germ carriers are to be removed from the disinfectant solution, and after rinsing twice in each case for 1 min in 10 ml ML solution (see Appendix) to which the deactivating substances were optionally added, the germ carriers are placed onto the surface of a Löwenstein-Jensen nutrient medium with tweezers and moved backwards and forwards 3 to 4 times using light pressure. After inoculating the nutrient medium surface the small cloth is to remain lying directly above the condensed water level of the nutrient medium.
Germ carriers pre-treated in the same way, but kept in WSH for 120 minutes instead of in disinfectant solution are to be inoculated as a control. The inoculated tubes are incubated at 37°C for 3 weeks.

Ps. aeruginosa = assay: Quantitative surface test according to DGHM, alcoholic surface disinfectant; details: additive (0.05% for single substances) in ethanol 25.0 % / 1-propanol 35.0 % formulation, germs deposited after approx. 20 minutes
Excerpt: Standard formulation: • ethanol (MEK denatured) 25.0 % • 1-propanol 35.0 % • perfume 0.02 % • benzotriazole 0.001 % • Marlipal 013/70 0.1% (isotridecanpolyethyleneglycol-(7)-ether = C13 oxo alcohol + 7 mol ethylene oxide) • active ingredient additive x% • dem. water to 100 Test germ: Ps. aeruginosa Test method:
Quantitative surface test according to DGHM (Deutsche Gesellschaft für Hygiene and Microbiology = German Association for Hygiene and Microbiology). In order to exclude the effectiveness of the readily volatile alcohol components (ethanol, 1-propanol), the preparations were deposited onto the surfaces and the germs were deposited after approx. 20 minutes. Test surfaces: PVC and OP tiles Data as reduction factors (log stages)

[4] = tested on: Candida albicans ATCC 10231; assay: MIC values, water-soluble (inhibition titre, dilution series in CSL)
Protocol: (§1) Standard formulation: • Rewopal MPG 40 25.0 g • aromatic alcohol 10 mmol • dem.* water to 100 g • lactic acid for adjusting the pH value to 7.0 q.s.
(§2) In sterile test tubes, 5 ml each of the dilutions of the disinfectant in WSH (water of standardized hardness) are mixed with 5 ml double-concentrated casein peptone soybean flour peptone solution (CSL) or CSL and deactivating substances.
(§3) To determine the bacteriostatic action on Staphylococcus aureus and Proteus mirabilis the tubes are inoculated by adding 0.1 ml of a CSL culture diluted 1:10 with CSL and incubated for 24 h at 37°C.
(§4) To test the fungistatic action, 0.1 ml of an undiluted CSL culture of Candida albicans which has been incubated at 37°C for 72 h is used in each case. Evaluation takes place after 72 h at 37°C.
(§5) The highest dilution of the preparation in CSL or CSL and deactivating substances that still suppresses growth of the test germs after […] incubation serves as the measure of the multiplication-inhibiting action (inhibition titre).
(§6) In the case of the disinhibition tests, the culture media are to be adjusted to a pH value of 7.0 ± 0.2 according to the state of the disinfectant.
(§7) Standard formulation: • aromatic alcohol 5.0 % • Brij 58 5.0 % • 1,3-butanediol to 100 • Test germs: see above • Test method: see above

[5] = tested on: Staphylococcus aureus ATCC 6538; assay: as above
Protocol: as §1, §2, §3, §4, §5, §6, §7

[6] = tested on: Germ mixture of Staphylococcus aureus, Staphylococcus epidermis, Escherichia coli, Klebsiella pneumoniae, Enterobacter gergoviae, Pseudomonas aeruginosa …; assay: Preservative test: weekly loading of the sample with germ suspension; details: aromatic alcohol 0.5% in sulfosuccinate 12.0% / betaine 3.0% formulation
Excerpt: Standard formulation: • sulfosuccinate 12.0% • betaine 3.0% • aromatic alcohol 0.5% • re-fatting agent • skin care additives • thickener • dem. water to 100 Test germs: Germ mixture of Staphylococcus aureus, Staphylococcus epidermis, Escherichia coli, Klebsiella pneumoniae, Enterobacter gergoviae, Pseudomonas aeruginosa, Pseudomonas fluorescens, Pseudomonas putida, Aspergillus niger, Penicillium funiculosum, Candida albicans; Total germ count 10^8-10^9/ml. Test method: weekly loading of the sample with germ suspension; smear onto CS and Sabouraud agar. See also K.-H. Diehl, P. Oltmanns, J. Ramsbotham, Seife, Öle, Fette, Wachse 118 (1992) 546.
Data expressed semi-qualitatively: • - no growth < 10^2 CFU/g (CFU = colony-forming units) • + slight growth approx. 10^3 CFU/g • ++ moderate growth approx. 10^4-10^5 CFU/g • +++ heavy growth > 10^5 CFU/g

[7] = tested on: Proteus vulgaris NCTC 4635; assay: MIC values, water-soluble (inhibition titre, dilution series in CSL)
[8] = standard formulation: Rewopal MPG 40 25.0 g, aromatic alcohol 10 mmol, dem. water to 100 g, pH 7.0
[9] = standard formulation: aromatic alcohol 5.0 %, Brij 58 5.0 %, 1,3-butanediol to 100

Row | MIC (minimum inhibiting concentration) P. funi. [1, 8] [μmol/100 ml test solution] | MIC (minimum inhibiting concentration) A. niger [2, 8] [μmol/100 ml test solution] | MIC (minimum inhibiting concentration) C. albicans [4, 8] [μmol/100 ml test solution] | MIC (minimum inhibiting concentration) S. aureus [5, 8] | MIC (minimum inhibiting concentration) P. vulgaris [7, 8] | SMILES | growth of M. terrae after action time 15' [3] | growth of M. terrae after action time 30' [3] | growth of M. terrae after action time 60' [3] | growth of M. terrae after action time 120' [3] | also measured
1 | 313 | 313 | 313 | 313 μmol/100 ml test solution | 313 μmol/100 ml test solution | CC(C)(CO)Cc1ccccc1 [Alcohol 2, 2,2-dimethyl-3-phenyl-1-propanol] | +++ | ++ | + | M | reduction factors (log stages) (Ps. aeruginosa; PVC, 30'): >6.0 log stages; reduction factors (log stages) (Ps. aeruginosa; PVC, 60'): >5.4 log stages; reduction factors (log stages) (Ps. aeruginosa; PVC, 240'): >6.5 log stages; reduction factors (log stages) (Ps. aeruginosa; Tiles, 30'): 4.1 log stages; reduction factors (log stages) (Ps. aeruginosa; Tiles, 60'): 4.9 log stages; reduction factors (log stages) (Ps. aeruginosa; Tiles, 240'): >5.8 log stages; growth, 1st week ([6]; 1st week): - (no growth < 10^2 CFU/g); growth, 2nd week ([6]; 2nd week): - (no growth < 10^2 CFU/g); growth, 3rd week ([6]; 3rd week): - (no growth < 10^2 CFU/g); growth, 4th week ([6]; 4th week): - (no growth < 10^2 CFU/g); growth, 5th week ([6]; 5th week): - (no growth < 10^2 CFU/g)
2 | 156 | 156 | 625 | 2,500 μmol/100 ml test solution | 2,500 μmol/100 ml test solution | Cc1cccc(CC(C)(C)CO)c1 [Alcohol 3, 2,2-dimethyl-3-(3-methylphenyl) propanol] | +++ | + | + | E | MIC (minimum inhibiting concentration) P. funi. [1, 9]: 313 µmol/100 ml test solution; MIC (minimum inhibiting concentration) A. niger [2, 9]: 625 µmol/100 ml test solution; MIC (minimum inhibiting concentration) C. albicans [4, 9]: 625 µmol/100 ml test solution; MIC (minimum inhibiting concentration) S. aureus [5, 9]: 625 µmol/100 ml test solution; MIC (minimum inhibiting concentration) P. vulgaris [7, 9]: 625 µmol/100 ml test solution
